Test results published in PMC8287907 (Nucleic Acids Research, 2021).
“Also recorded” adds a separate entry of the source.

Biological target: SUD-NM / TRF2 G4 interaction (Severe acute respiratory syndrome coronavirus 2, UniProt P0DTD1)
Format: binding, SARS-CoV-2
Settings: His-SUD-NM 10 nM, biotinylated TRF2 G4 50 nM, TMP 100 to 500 nM

## Cc1cc2cc3c(C)cc(=O)oc3c(C)c2o1 [TMP, trimethyl psoralen]
  Inhibition of the SUD/G4 interaction (in words): No inhibition; also recorded: does not inhibit
